How the values were obtained:
cattle [1] = assay: Reduction of carbon dioxide gas emissions from cattle fed lubabegron for 14 days in individual chambers; format: in vivo
Description: Prepare lubabegron (L) as 4.5 g/lb of Type A Medicated Article. In an appropriate facility having cattle chambers or rooms for individual animals (chambers), test ten cycles of twelve cattle each, each cycle representing all dose (0, 1.25, 5, and 20 g/ton) with a mixture of genders (steer and heifer).
Upon receipt of the cattle, allocate the cattle to chambers to acclimate for 7 days. After the acclimation phase, for 14 days orally treat via feed one fourth of the cattle allocated to chambers L 0 g/ton/day; one fourth 1.25 g/ton/day; 5 g/ton/day; and 20 g/ton/day (100% dry matter basis). Provide feed and water ad libitum. On day 14, collect body weight and load cattle for transport to the slaughter facility. On day 15, slaughter the cattle and evaluate the carcass. During the study, monitor and collect carbon dioxide gas emissions data. […] Using the process described above, the following results are achieved.

cattle [2] = assay: Reduction of ammonia gas emissions from cattle fed lubabegron for 91 days in cattle pen enclosures; format: in vivo
Description: Prepare lubabegron (L) as 4.5 g/lb of Type A Medicated Article. In a facility having at least eight cattle pen enclosures (CPEs), test two cycles of cattle, each cycle representing all dose (0, 1.25, 5, and 20 g/ton) and gender (steer and heifer) combinations. For the purpose of this example, a cycle refers to a group of 112 animals housed concurrently. Within each cycle, there are 2 cohorts of animals (56 animals per cohort). A cohort refers to a group of same gender animals representing each of the 4 doses. Up to 4 cycles are used to provide a total of 4 cohorts per gender.
Upon receipt of the cattle, allocate the cattle to CPEs to acclimate for 7 days. After the acclimation phase, for 91 days orally treat via feed one fourth of the cattle allocated to CPEs L 0 g/ton/day; one fourth 1.25 g/ton/day; 5 g/ton/day; and 20 g/ton/day (100% dry matter basis). Provide feed and water ad libitum. On day 91, collect body weight and load cattle for transport to the slaughter facility. On day 92, slaughter the cattle and evaluate the carcass. During the study, monitor and collect ammonia gas emissions data. Measure the ammonia emissions over the treatment period and normalize by body weight (BW) for the period (Days 0-7, 0-14, 0-28, 0-56, and 0-91) and hot carcass weight (HCW) (Days 0-91) (g of gas/animal; g of gas/lb of live BW; g of gas/lb of HCW). Using the process described above, the following results are achieved.

`CC(C)(Cc1ccc(Oc2ncccc2C#N)cc1)NC[C@H](O)COc1ccccc1-c1cccs1` [lubabegron] was tested, and the “Reduction, as compared to control, g of CO2 gas/animal” value (shortened to “Reduction … of CO2 gas/animal”) (cattle [1]; 1.25 g/ton in feed, Day 0-7) was “(0.2%)”, the “Reduction, as compared to control, g of CO2 gas/lb of live BW” value (“Reduction … of CO2 gas/lb of live BW” for short) (cattle [1]; 1.25 g/ton in feed, Day 0-7) was 0% and the “Reduction … of CO2 gas/animal” value (cattle [1]; 1.25 g/ton in feed, Day 0-14) was “(3%)”. For the same compound, the “Reduction, as compared to control, g of CO2 gas/lb of HCW” value (shortened to “Reduction … of CO2 gas/lb of HCW”) (cattle [1]; 1.25 g/ton in feed, Day 0-14) was 4%, the “Reduction … of CO2 gas/lb of live BW” value (cattle [1]; 1.25 g/ton in feed, Day 0-14) was 2% and the “Reduction … of CO2 gas/animal” value (cattle [1]; 1.25 g/ton in feed, Day 7-14) was “(5%)”. For the same compound, the “Reduction … of CO2 gas/lb of HCW” value (cattle [1]; 1.25 g/ton in feed, Day 7-14) was 6%, the “Reduction … of CO2 gas/lb of live BW” value (cattle [1]; 1.25 g/ton in feed, Day 7-14) was 5% and the “Reduction … of CO2 gas/animal” value (cattle [1]; 5 g/ton in feed, Day 0-7) was “(4%)”. The “Reduction … of CO2 gas/lb of live BW” value (cattle [1]; 5 g/ton in feed, Day 0-7) was 3%, the “Reduction … of CO2 gas/animal” value (cattle [1]; 5 g/ton in feed, Day 0-14) was “(7%)” and the “Reduction … of CO2 gas/lb of HCW” value (cattle [1]; 5 g/ton in feed, Day 0-14) was 7%. The “Reduction … of CO2 gas/lb of live BW” value (cattle [1]; 5 g/ton in feed, Day 0-14) was 6%, the “Reduction … of CO2 gas/animal” value (cattle [1]; 5 g/ton in feed, Day 7-14) was “(10%)” and the “Reduction … of CO2 gas/lb of HCW” value (cattle [1]; 5 g/ton in feed, Day 7-14) was 10%. For the same compound, the “Reduction … of CO2 gas/lb of live BW” value (cattle [1]; 5 g/ton in feed, Day 7-14) was 9%, the “Reduction … of CO2 gas/animal” value (cattle [1]; 20 g/ton in feed, Day 0-7) was “(4%)” and the “Reduction … of CO2 gas/lb of live BW” value (cattle [1]; 20 g/ton in feed, Day 0-7) was 4%. For the same compound, the “Reduction … of CO2 gas/animal” value (cattle [1]; 20 g/ton in feed, Day 0-14) was “(7%)”, the “Reduction … of CO2 gas/lb of HCW” value (cattle [1]; 20 g/ton in feed, Day 0-14) was 7% and the “Reduction … of CO2 gas/lb of live BW” value (cattle [1]; 20 g/ton in feed, Day 0-14) was 6%. The “Reduction … of CO2 gas/animal” value (cattle [1]; 20 g/ton in feed, Day 7-14) was “(9%)”, the “Reduction … of CO2 gas/lb of HCW” value (cattle [1]; 20 g/ton in feed, Day 7-14) was 10% and the “Reduction … of CO2 gas/lb of live BW” value (cattle [1]; 20 g/ton in feed, Day 7-14) was 9%. The “Reduction, as compared to control, g of NH3 gas/animal” value (from here on “Reduction … of NH3 gas/animal”) (cattle [2]; 1.25 g/ton in feed, Day 0-7) was 5% (5%), the “Reduction, as compared to control, g of NH3 gas/lb of live BW” value (“Reduction … of NH3 gas/lb of live BW” below) (cattle [2]; 1.25 g/ton in feed, Day 0-7) was 5% (5%) and the “Reduction … of NH3 gas/animal” value (cattle [2]; 1.25 g/ton in feed, Day 0-14) was 12%. For the same compound, the “Reduction … of NH3 gas/lb of live BW” value (cattle [2]; 1.25 g/ton in feed, Day 0-14) was 14%, the “Reduction … of NH3 gas/animal” value (cattle [2]; 1.25 g/ton in feed, Day 0-28) was 15% and the “Reduction … of NH3 gas/lb of live BW” value (cattle [2]; 1.25 g/ton in feed, Day 0-28) was 16%. The “Reduction … of NH3 gas/animal” value (cattle [2]; 1.25 g/ton in feed, Day 0-56) was 11%, the “Reduction … of NH3 gas/lb of live BW” value (cattle [2]; 1.25 g/ton in feed, Day 0-56) was 13% and the “Reduction … of NH3 gas/animal” value (cattle [2]; 1.25 g/ton in feed, Day 0-91) was 9%. The “Reduction, as compared to control, g of NH3 gas/lb of HCW” value (from here on “Reduction … of NH3 gas/lb of HCW”) (cattle [2]; 1.25 g/ton in feed, Day 0-91) was 13%, the “Reduction … of NH3 gas/lb of live BW” value (cattle [2]; 1.25 g/ton in feed, Day 0-91) was 11% and the “Reduction … of NH3 gas/animal” value (cattle [2]; 5 g/ton in feed, Day 0-7) was 7%. The “Reduction … of NH3 gas/lb of live BW” value (cattle [2]; 5 g/ton in feed, Day 0-7) was 8%, the “Reduction … of NH3 gas/animal” value (cattle [2]; 5 g/ton in feed, Day 0-14) was 16% and the “Reduction … of NH3 gas/lb of live BW” value (cattle [2]; 5 g/ton in feed, Day 0-14) was 17%. The “Reduction … of NH3 gas/animal” value (cattle [2]; 5 g/ton in feed, Day 0-28) was 20%, the “Reduction … of NH3 gas/lb of live BW” value (cattle [2]; 5 g/ton in feed, Day 0-28) was 21% and the “Reduction … of NH3 gas/animal” value (cattle [2]; 5 g/ton in feed, Day 0-56) was 16%. The “Reduction … of NH3 gas/lb of live BW” value (cattle [2]; 5 g/ton in feed, Day 0-56) was 18%, the “Reduction … of NH3 gas/animal” value (cattle [2]; 5 g/ton in feed, Day 0-91) was 12% and the “Reduction … of NH3 gas/lb of HCW” value (cattle [2]; 5 g/ton in feed, Day 0-91) was 16%. For the same compound, the “Reduction … of NH3 gas/lb of live BW” value (cattle [2]; 5 g/ton in feed, Day 0-91) was 14%, the “Reduction … of NH3 gas/animal” value (cattle [2]; 20 g/ton in feed, Day 0-7) was 21% and the “Reduction … of NH3 gas/lb of live BW” value (cattle [2]; 20 g/ton in feed, Day 0-7) was 22%. The “Reduction … of NH3 gas/animal” value (cattle [2]; 20 g/ton in feed, Day 0-14) was 27% (27%), the “Reduction … of NH3 gas/lb of live BW” value (cattle [2]; 20 g/ton in feed, Day 0-14) was 27% (27%) and the “Reduction … of NH3 gas/animal” value (cattle [2]; 20 g/ton in feed, Day 0-28) was 25%. The “Reduction … of NH3 gas/lb of live BW” value (cattle [2]; 20 g/ton in feed, Day 0-28) was 26%, the “Reduction … of NH3 gas/animal” value (cattle [2]; 20 g/ton in feed, Day 0-56) was 19% (19%) and the “Reduction … of NH3 gas/lb of live BW” value (cattle [2]; 20 g/ton in feed, Day 0-56) was 19% (19%). For the same compound, the “Reduction … of NH3 gas/animal” value (cattle [2]; 20 g/ton in feed, Day 0-91) was 13%, the “Reduction … of NH3 gas/lb of HCW” value (cattle [2]; 20 g/ton in feed, Day 0-91) was 17% and the “Reduction … of NH3 gas/lb of live BW” value (cattle [2]; 20 g/ton in feed, Day 0-91) was 15%.

Source: patent US12677847B2, “Methods and formulations for reducing bovine emissions” (Elanco US Inc., priority 2015, dated 2026)
